pIC50: −log10 of the molar value.
Tests used:
[1] = molecular target: T1, Biotinylated KRAS G12C protein and GST-tagged Ras binding domain of c-RAF (Homo sapiens, UniProt P01116, C118S/C51S/C80L/G12C); experiment: Test Example 5: RAS:RAF-RBD binding assay (TR-FRET); details: 30-minute incubation with compound, then GST-c-RAF RBD, read-out: cRaf IC50
T1 construct: biotin acceptor peptide (Avi-type, […]
Experimental: Test Example 5: Procedure for RAS:RAF-RBD Binding Assay
The RAF-Ras binding domain (RBD) protein interaction assay utilizes Biotinylated KRAS G12C protein (SEQ ID NO: 3) and the GST-tagged Ras binding domain of c-RAF (residues 50-132) from Jena Biosciences). Compounds are added to KRAS and then after a 30-minute incubation time the RAF-RBD and detection antibodies are added. Small molecule inhibitors that block the interaction of c-RAF-RBD prevent generation of a TR-FRET signal.
Biotinylated KRAS G12C protein is diluted to 20 nM in assay buffer (20 mM HEPES pH 7.5, 150 mM sodium chloride, 10 mM magnesium chloride, and 0.01% Tween20).
(§1) Each test compound (10 mM stock in DMSO) is diluted in DMSO to make a 10-point, 3-fold dilution series in a 384-well low dead volume microplate (Labcyte, catalog #LP-0200). Once titrations are made, 50 nL of the diluted compounds is acoustically dispensed into 384-well plates (Corning, catalog #3820) using an Echo 655 (Labcyte).
Each well of the assay plate receives 5 μL of Biotinylated KRAS G12C assay solution and is incubated at room temperature for 30 minutes. Each well then receives 5 μL of 100 nM GST-c-RAF RBD protein and a 1:100 dilution of both anti-GST-d2 (Cisbio catalog #61GSTDLA) and Strepavidin-Tb cryptate (Cisbio catalog #610SATLA) in assay buffer and the plate is mixed and briefly centrifuged followed by a 60 minute incubation at room temperature.
(§2) The time-resolved fluorescence resonance energy transfer signal of both plates is measured on an Envision (PerkinElmer) plate reader: dichroic mirror=LANCE/DELFIA DUAL/Bias; Emission1=615 nm; Emission2=665 nm; delay time=60 s. The signal of each well is determined as the ratio of the emission at 665 nm to that at 615 nm. Percent effect of each well is determined after normalization to control wells containing DMSO (no effect) or a saturating concentration of inhibitor (max effect). The apparent effect as a function of compound concentration is fit to a four-parameter logistic equation.

[2] = molecular target: T2, biotinylated KRAS protein containing G12C/C51S/C80L/C118S mutations (SEQ ID NO: 3) (Homo sapiens, UniProt P01116, C118S/C51S/C80L/G12C); experiment: Test Example 4: SOS-catalyzed nucleotide exchange assay (TR-FRET); format: biochemical; details: 60-minute incubation with compound, then SOS and GTP, read-out: GNE IC50
T2 construct: biotin acceptor peptide (Avi-type, […]
T2 sequence (P01116 with tags, fused parts or gaps isoform P01116-2 G12C/C51S/C80L/C118S): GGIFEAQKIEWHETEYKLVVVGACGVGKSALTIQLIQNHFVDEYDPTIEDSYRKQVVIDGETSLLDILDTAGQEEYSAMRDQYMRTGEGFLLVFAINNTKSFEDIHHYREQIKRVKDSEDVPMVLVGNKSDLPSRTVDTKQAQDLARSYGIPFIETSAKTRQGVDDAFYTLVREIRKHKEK
Experimental: Test Example 4: Procedure for SOS-Catalyzed Nucleotide Exchange Assay
The SOS-catalyzed nucleotide exchange assay utilizes a preformed complex of recombinant biotinylated KRAS protein containing G12C/C51S/C80L/C118S mutations (SEQ ID NO: 3) (referred to as Biotinylated KRAS G12C protein hereafter), Bodipy-GDP, and Terbium-streptavidin. Compounds are added to this complex and then after a 60-minute incubation time the mixture is treated with SOS and unlabeled GTP. Small molecule inhibitors stabilize the Bodipy-GDP complex whereas the untreated protein rapidly exchanges Bodipy-GDP for unlabeled GTP resulting in reduced TR-FRET signal.
Biotinylated KRAS G12C protein is diluted to 2 μM in an EDTA buffer (20 mM HEPES, 50 mM sodium chloride, 10 mM EDTA, and 0.01% Tween) and incubated at room temperature for one hour. This mixture is then further diluted to 90 nM in an assay buffer (20 mM HEPES, 150 mM sodium chloride, 10 mM magnesium chloride, and 0.005% Tween) containing 15 nM of Terbium-Streptavidin (Invitrogen, catalog #PV3577) and 900 nM of Bodipy-GDP (Invitrogen, G22360) and incubated at room temperature for six hours. This solution is referred to as Biotinylated KRAS G12C stock solution and is then diluted to 9 nM in assay buffer to give the KRAS G12C assay solution.
as §1, with “10” for “50”, “into a” for “into”, “plate” for “plates”, “550” for “655”
Each well receives 6 μL of Biotinylated KRAS G12C assay solution using a BioRAPTR (Beckman Coulter) and is incubated at room temperature for 60 minutes in a humidified chamber. Each well then receives 3 μL of 120 nM recombinant human SOS protein and 9 mM GTP (Sigma, G8877) in assay buffer and is incubated at room temperature for 60 minutes in a humidified chamber.
as §2, with “reader: Excitation filter=340 nm; emission 1=495 nm; emission 2=520 nm;” for “reader:”, “mirror=D400/D505;” for “mirror=LANCE/DELFIA DUAL/Bias; Emission1=615 nm; Emission2=665 nm;”, “time=100 μs.” for “time=60 s.”, “520” for “665”, “495” for “615”

T1 sequence (P01116 with tags, fused parts or gaps isoform P01116-2 G12C/C51S/C80L/C118S): as above

| SMILES | pIC50 [1] | pIC50 [2] |
| --- | --- | --- |
| C#Cc1cccc2cccc([C@@H]3Cc4nc(OC[C@@]56CCCN5C[C@H](F)C6)nc(N5CCN(C(=O)/C=C/CN6CCC(OC)CC6)[C@@H](CC#N)C5)c4CO3)c12 (single isomer, unassigned) [Example 25b] | 7.13 | 8.80 |
| COC1CCN(C/C=C/C(=O)N2CCN(c3nc(OC[C@@]45CCCN4C[C@H](F)C5)nc4c3COC(c3nc(N)cc(C)c3C(F)(F)F)C4)C[C@@H]2CC#N)CC1 (stereo partly drawn) [Example 22, 2-((2S)-4-(7-(6-amino-4-methyl-3-(trifluoromethyl)-pyridin-2-yl)-2-(((2R,7aS)-2-fluorotetrahydro-1H-pyr-rolizin-7a(5H)-yl)methoxy)-7,8-dihydro-5H-pyrano[4,3-d]pyrimidin-4-yl)-1-((E)-4-(4-methoxypiperidin-1-yl)-but-2-enoyl)piperazin-2-yl)-acetonitrile] | 6.91 | 8.25 |
| C#Cc1cccc2cccc(C3Cc4nc(OC[C@]5(CO)CC5(F)F)nc(N5CCN(C(=O)/C=C/CN6CCC(OC)CC6)[C@@H](CC#N)C5)c4CO3)c12 (stereo partly drawn) [Example 24, 2-((2S)-4-(2-(((R)-2,2-difluoro-1-(hydroxymethyl)cyclopropyl)methoxy)-7-(8-ethynylnaphthalen-1-yl)-7,8-dihydro-5H-pyrano[4,3-d]pyrimidin-4-yl)-1-((E)-4-(4-methoxypiperidin-1-yl)but-2-enoyl)piperazin-2-yl)acetonitrile] | < 4.30 | 7.26 |
| COC1CCN(C/C=C/C(=O)N2CCN(c3nc(OC[C@@]45CCCN4C[C@H](F)C5)nc4c3CCC3(CCCc5ccccc53)O4)C[C@@H]2CC#N)CC1 (stereo partly drawn) [Example 26, 2-((2S)-4-(2′-(((2R,7aS)-2-fluorotetrahydro-1H-pyrrolizin-7a(5H)-yl)methoxy)-3,4,5′,6′-tetrahydro-2H-spiro[naphthalene-1,7′-pyrano[2,3-d]pyrimidin]-4′-yl)-1-((E)-4-(4-methoxypiperidin-1-yl)but-2-enoyl)piperazin-2-yl)acetonitrile] | 4.31 | 7.09 |

— US20240417408A1, “SMALL MOLECULE INHIBITORS OF KRAS G12C MUTANT” (MERCK SHARP & DOHME CORP., priority 2021, published 2024)
